Assay results: patent US20060030616A1, “Anhydride modified cantharidin analogues useful in the treatment of cancer” (priority 1998, published 2006)

Tests used:
Assay type in all cases: cell-based, human
[1] = system: A2780 cells; assay: MTT cytotoxicity assay, 72 h; settings: A2780, p53 wt; read-out: IC50 (mean ± SE) after 72 h continuous exposure
Outline: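 Absorbance at 540 nm of solubilized MTT formazan measures viable cells after 72 h inhibitor exposure. Cells are plated 24 h ahead to reach exponential growth, with L1210 at 1000 cells/well. IC50 comes from the dose-response of growth between day 0 and day 3.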

[2] = system: HCT116 cells; assay: Combination studies, Median Effect Method (MTT); settings: simultaneous
Method: (§1) Those protein phosphatase inhibitors which show abrogation of either the G1 or G2 checkpoint will then be exploited in combination studies with either radiation exposure or chemotherapy drugs incubation. The MTT (3-[4,5-dimethylthiazol-2-yl]2,5-diphenyl-tetrazolium bromide) assay is used to determine whether a synergistic, antagonistic or additive effect is induced. The Median Effect method is adopted to mathematically determine the optimal combination index of the treatments chosen (Chou and Talalay, 1984). This method has been extensively used to investigate the cytotoxicity of various drug combinations including cisplatin and D1694 (Ackland et al 1996; 1998). A combination index value less than 1 indicates synergism, a value equal to 1 indicates additivity and a value greater than one indicates antagonism.
(§2) The cell lines listed above are exposed continuously to cisplatin and the phosphatase inhibitor in various drug ratio combinations for 72 h and then assayed for cytotoxicity; Similarly, the cells are exposed to 8 Gy of radiation and incubated with the phosphatase inhibitor and assessed for cytotoxicity at 72 h.
(§3) This method tests the cytotoxicity of various drug combinations from which a combination index can be calculated. A value of greater than one indicated antagonism, a value equal to 1 indicates additivity, while a value less than one indicates synergism. The HT29 and HCT116 cell lines were chosen as they have differing p53 status and they represent the tumour types that responded the greatest to cantharidin and its analogues.

[3] = system: HT29 cells; assay: Combination studies, Median Effect Method (MTT); settings: simultaneous
Method: as §1, §2, §3

Compound	IC50 [1] [µM]	Combination response with taxotere [2]	Combination response with cisplatin ([2]; molar ratios 1:1, 10:1, 1:10)	Combination response with cisplatin ([3]; molar ratios 1:1, 10:1, 1:10)	Combination response with taxotere ([3]; ratios 1:10, 1:100, 1:1000 (Taxotere: MK-4))
O=C1OC(=O)C2C3C=CC(O3)C12 (stereo not drawn) [MK-2]	157 ± 9	–	–	–	–
O=C1OC(O)C2C3CCC(O3)C12 (stereo not drawn) [MK-4]	333 ± 55	synergistic	additive	additive	additive
